Results: patent US20100261719A1, “CHEMICAL COMPOUNDS” (priority 2007, published 2010)
pIC50: −log10 of the molar value.

biological target: Escherichia coli DNA gyrase A/B tetramer (Escherichia coli, UniProt P0AES4+P0AES6); test: DNA gyrase supercoiling activity fluorescence polarisation assay; assay type: biochemical; conditions: not given
Experimental: In a black, 384-well polystyrene assay plate, 30 microliters/well of 5 nM Escherichia coli DNA gyrase A/B tetramer and 130 micrograms/ml of topologically relaxed plasmid containing the triplex-forming sequence […] in an assay buffer consisting of 35 mM Tris-HCl (pH 7.5), 24 mM KCl, 4 mM MgCl2, 2 mM dithiothreitol, 1.8 mM spermidine, 5% (v/v) glycerol, 200 nM bovine serum albumin, 0.8% dimethylsulfoxide, and 0.3 mM ATP may be incubated at ambient temperature for (typically 30 minutes) in the absence or presence of 5-10 different concentrations of test compound. The supercoiling reactions may be quenched by the addition of 10 microliters/well of 40 nM oligodeoxynucleotide probe in 3× triplex-forming buffer consisting of 150 mM NaCl, and 150 mM sodium acetate at pH 3.5. The oligodeoxynucleotide probe may be 5′-BODIPY-FL-labeled TTCTTCTTC. After 60 minutes, the fluorescence anisotropy of the BODIPY-FL may be measured in a Tecan Ultra plate reader, using 485 nm excitation and 535 nm emission filters equipped with polarizers. The IC50 may be determined by nonliner regression using two control reactions. The first contains no test compound but 0.8% DMSO (100% activity) while the second control reaction contains 5 uM Ciprofloxacin and 0.8% DMSO (0% activity).
When tested in an in-vitro assay based on the DNA gyrase supercoiling activity fluorescence polarisation assay described above, the E. coli DNA gyrase supercoiling IC50 assay inhibitory activity of the following Examples was measured at the indicated IC50.

Sequence of Escherichia coli DNA gyrase A/B tetramer (P0AES4 whole entry, one chain of several): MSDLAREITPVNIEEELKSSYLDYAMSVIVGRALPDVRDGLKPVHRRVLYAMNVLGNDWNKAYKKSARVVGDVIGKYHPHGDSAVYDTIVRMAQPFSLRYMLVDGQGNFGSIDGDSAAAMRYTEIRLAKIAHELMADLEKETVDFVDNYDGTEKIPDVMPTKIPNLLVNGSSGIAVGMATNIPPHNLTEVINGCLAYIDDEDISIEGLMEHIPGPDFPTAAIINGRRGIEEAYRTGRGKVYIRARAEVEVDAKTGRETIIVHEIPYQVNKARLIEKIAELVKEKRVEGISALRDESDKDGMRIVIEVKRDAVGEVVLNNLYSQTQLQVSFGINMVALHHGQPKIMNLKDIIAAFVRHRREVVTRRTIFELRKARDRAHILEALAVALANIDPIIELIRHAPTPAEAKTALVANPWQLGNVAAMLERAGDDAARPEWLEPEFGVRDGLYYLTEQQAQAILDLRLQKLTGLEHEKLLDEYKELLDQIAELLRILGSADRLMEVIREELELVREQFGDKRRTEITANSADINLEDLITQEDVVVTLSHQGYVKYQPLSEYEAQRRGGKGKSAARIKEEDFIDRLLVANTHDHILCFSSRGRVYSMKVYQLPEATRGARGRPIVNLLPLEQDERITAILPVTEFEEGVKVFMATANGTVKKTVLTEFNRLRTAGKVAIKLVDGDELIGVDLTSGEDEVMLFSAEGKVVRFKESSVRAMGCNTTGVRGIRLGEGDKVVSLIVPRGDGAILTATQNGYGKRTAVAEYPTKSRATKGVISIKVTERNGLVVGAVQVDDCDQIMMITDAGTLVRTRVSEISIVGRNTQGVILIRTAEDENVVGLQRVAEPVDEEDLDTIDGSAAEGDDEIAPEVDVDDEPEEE

Point of comparison: C[C@@H]1CN2c3ccc(NS(=O)(=O)N4CCOCC4)cc3CC3(C(=O)NC(=O)NC3=O)[C@H]2[C@H](C)O1 (relative stereo) [Example 75, N-[(2R,4S ,4aS)-rel-2,4-Dimethyl-2′,4′,6′-trioxo-1,1′,2,3′,4,4′,4a,6′-octahydro-2′H,6H-spiro[1,4-oxazino[4,3-a]quinoline-5,5′-pyrimidin]-8-yl]morpholine-4-sulfonamide], pIC50 6.18. Against it:
- C[C@@H]1CN2c3c(cc(C(=O)NC4CCN(C(=O)OC(C)(C)C)CC4)c(F)c3F)CC3(C(=O)NC(=O)NC3=O)[C@H]2[C@H](C)O1 (relative stereo) [Example 67, tert-Butyl 4-({[(2R,4S,4aS)-rel-9,10-difluoro-2,4-dimethyl-2′,4′,6′-trioxo-1,1′,2,3′,4,4′,4a,6′-octahydro-2′H,6H-spiro[1,4-oxazino[4,3-a]quinoline-5,5′-pyrimidin]-8-yl]carbonyl}amino)piperidine-1-carboxylate] — 1.26 log units lower, 4.92
- C[C@@H]1CN2c3c(cc(C(=O)NC4CCNC4)c(F)c3F)CC3(C(=O)NC(=O)NC3=O)[C@H]2[C@H](C)O1 (relative stereo) [Example 70, (2R,4S,4aS)-rel-9,10-Difluoro-2,4-dimethyl-2′,4′,6′-trioxo-N-(pyrrolidin-3-yl)-1,1′,2,3′,4,4′,4a,6′-octahydro-2′H,6H-spiro[1,4-oxazino[4,3-a]quinoline-5,5′-pyrimidine]-8-carboxamide] — 0.64 log units lower, 5.54
- C[C@H]1CN2c3c(cc(C#Cc4cn(C)cn4)c(F)c3F)CC3(C(=O)NC(=O)NC3=O)[C@@H]2[C@@H](C)O1 (racemic) [Example 13, (2S,4R,4aR)-rel-9,10-Difluoro-2,4-dimethyl-8-[(1-methyl-1H-imidazol-4-yl)ethynyl]-1,2,4,4a-tetrahydro-2′H,6H-spiro[1,4-oxazino[4,3-a]quinoline-5,5′-pyrimidine]-2′,4′,6′-(1′H,3′H)-trione] — 0.52 log units lower, 5.66
- C[C@@H]1CN2c3c(cc(C#Cc4cnccn4)c(F)c3F)CC3(C(=O)NC(=O)NC3=O)[C@H]2[C@H](C)O1 [Example 79, (2R,4S,4aS)-9,10-Difluoro-2,4-dimethyl-8-(pyrazin-2-ylethynyl)-2,4,4a,6-tetrahydro-1H,1′H-spiro[[1,4]oxazino[4,3-a]quinoline-5,5′-pyrimidine]-2′,4′,6′(3′H)-trione] — 0.22 log units higher, 6.40
- C[C@@H]1CN2c3ccc(NC(=O)Nc4ccccc4)cc3CC3(C(=O)NC(=O)NC3=O)[C@H]2[C@H](C)O1 (relative stereo) [Example 73, 1-[(2R,4S,4aS)-rel-2,4-Dimethyl-2′,4′,6′-trioxo-1,1′,2,3′,4,4′,4a,6′-octahydro-2′H,6H-spiro[1,4-oxazino[4,3-a]quinoline-5,5′-pyrimidin]-8-yl]-3-phenylurea] — 0.88 log units lower, 5.30
- C/C(=N\Nc1cnccn1)c1cc2c(c(F)c1F)N1C[C@@H](C)O[C@@H](C)[C@@H]1C1(C2)C(=O)NC(=O)NC1=O (relative stereo) [Example 60, (2R,4S,4aS)-rel-9,10-Difluoro-2,4-dimethyl-8-{(1E)-1-[2-(pyrazin-2-yl)hydrazinylidene]ethyl}-1,2,4,4a-tetrahydro-2′H,6H-spiro[1,4-oxazino[4,3-a]quinoline-5,5′-pyrimidine]-2′,4′,6′(1′H,3′H)-trione] — 0.41 log units higher, 6.59
- C[C@@H]1CN2c3c(cc(C#Cc4nccn4C)c(F)c3F)CC3(C(=O)NC(=O)NC3=O)[C@H]2[C@H](C)O1 (racemic) [Example 12, (2R,4S,4aS)-rel-9,10-Difluoro-2,4-dimethyl-8-[(1-methyl-1H-imidazol-2-yl)ethynyl]-1,2,4,4a-tetrahydro-2′H,6H-spiro[1,4-oxazino≡[4,3-a]quinoline-5,5′-pyrimidine]-2′,4′,6′(1′H,3H)-trione] — within 0.2 log units, 6.16
- C[C@@H]1CN2c3c(F)cc(C#Cc4cccs4)cc3CC3(C(=O)NC(=O)NC3=O)[C@H]2[C@H](C)O1 (relative stereo) [Example 40, (2R,4S,4aS)-rel-10-Fluoro-2,4-dimethyl-8-(thiophen-2-ylethynyl)-1,2,4,4a-tetrahydro-2′H,6H-spiro[1,4-oxazino[4,3-a]quinoline-5,5′-pyrimidine]-2′,4′,6′(1′H,3′H)-trione] — 0.24 log units lower, 5.94
- C[C@@H]1CN2c3c(cc(C(=O)NC4CCCN(C)C4)c(F)c3F)CC3(C(=O)NC(=O)NC3=O)[C@H]2[C@H](C)O1 (relative stereo) [Example 69, (2R,4S,4aS)-rel-9,10-Difluoro-2,4-dimethyl-N-(1-methylpiperidin-3-yl)-2′,4′,6′-trioxo-1,1′,2,3′,4,4′,4a,6′-octahydro-2′H,6H-spiro[1,4-oxazino[4,3-a]quinoline-5,5′-pyrimidine]-8-carboxamide] — 1.12 log units lower, 5.06
- C[C@H]1CN2c3c(cc(C#Cc4cncs4)c(F)c3F)CC3(C(=O)NC(=O)NC3=O)[C@@H]2[C@@H](C)O1 (relative stereo) [Example 9, (2S,4R,4aR)-rel-9,10-Difluoro-2,4-dimethyl-8-(1,3-thiazol-5-ylethynyl)-1,2,4,4a-tetrahydro-2′H,6H-spiro[1,4-oxazino[4,3-a]quinoline-5,5′-pyrimidine]-2′,4′,6′(1′H,3′H)-trione] — within 0.2 log units, 6.15
- C[C@@H]1CN2c3cc(F)c(C#Cc4nc5ccccc5s4)cc3CC3(C(=O)NC(=O)NC3=O)[C@H]2[C@H](C)O1 (relative stereo) [Example 34, (2R,4S,4aS)-rel-8-(1,3-Benzothiazol-2-ylethynyl)-9-fluoro-2,4-dimethyl-1,2,4,4a-tetrahydro-2′H,6H-spiro[1,4-oxazino[4,3-a]quinoline-5,5′-pyrimidine]-2′,4′,6′(1′H,3′H)-trione] — 0.65 log units lower, 5.53
- C[C@@H]1CN2c3c(F)cc(C#Cc4cccnc4)cc3CC3(C(=O)NC(=O)NC3=O)[C@H]2[C@H](C)O1 (relative stereo) [Example 44, (2R,4S,4aS)-rel-10-Fluoro-2,4-dimethyl-8-(pyridin-3-ylethynyl)-1,2,4,4a-tetrahydro-2′H,6H-spiro[1,4-oxazino[4,3-a]quinoline-5,5′-pyrimidine]-2′,4′,6′(1′H,3′H)-trione] — 0.48 log units higher, 6.66
- C[C@@H]1CN2c3cc(F)c(C#Cc4cnccn4)cc3CC3(C(=O)NC(=O)NC3=O)[C@H]2[C@H](C)O1 (relative stereo) [Example 31, (2R,4S,4aS)-rel-9-Fluoro-2,4-dimethyl-8-(pyrazin-2-ylethynyl)-1,2,4,4a-tetrahydro-2′H,6H-spiro[1,4-oxazino[4,3-a]quinoline-5,5′-pyrimidine]-2′,4′,6′(1′H,3′H)-trione] — within 0.2 log units, 6.01
- C/C(=N\NC(=O)C1CC1)c1cc2c(c(F)c1F)N1C[C@@H](C)O[C@@H](C)[C@@H]1C1(C2)C(=O)NC(=O)NC1=O (relative stereo) [Example 56, N′-{(1E)-1-[(2R,4S,4aS)-rel-9,10-Difluoro-2,4-dimethyl-2′,4′,6′-trioxo-1,1′,2,3′,4,4′,4a,6′-octahydro-2′H,6H-spiro[1,4-oxazino[4,3-a]quinoline-5,5′-pyrimidin]-8-yl]ethylidene}cyclopropanecarbohydrazide] — 0.45 log units lower, 5.73
- C/C(=N\Nc1ncccn1)c1cc2c(c(F)c1F)N1C[C@@H](C)O[C@@H](C)[C@@H]1C1(C2)C(=O)NC(=O)NC1=O (relative stereo) [Example 59, (2R,4S,4aS)-rel-9,10-Difluoro-2,4-dimethyl-8-{(1E)-1-[2-(pyrimidin-2-yl)hydrazinylidene]ethyl}-1,2,4,4a-tetrahydro-2′H,6H-spiro[1,4-oxazino[4,3-a]quinoline-5,5′-pyrimidine]-2′,4′,6′(1′H,3′H)-trione] — 0.39 log units lower, 5.79
- C[C@@H]1CN2c3cc(F)c(C#Cc4nc5ccccc5o4)cc3CC3(C(=O)NC(=O)NC3=O)[C@H]2[C@H](C)O1 (relative stereo) [Example 35, (2R,4S,4aS)-rel-8-(1,3-Benzoxazol-2-ylethynyl)-9-fluoro-2,4-dimethyl-1,2,4,4a-tetrahydro-2′H,6H-spiro[1,4-oxazino[4,3-a]quinoline-5,5′-pyrimidine]-2′,4′,6′(1′H,3′H)-trione] — 0.35 log units lower, 5.83
- C[C@@H]1CN2c3c(cc(C(=O)NC4CCN(c5ccccn5)CC4)c(F)c3F)CC3(C(=O)NC(=O)NC3=O)[C@H]2[C@H](C)O1 (relative stereo) [Example 68, (2R,4S,4aS)-rel-9,10-Difluoro-2,4-dimethyl-2′,4′,6′-trioxo-N-[1-(pyridin-2-yl)piperidin-4-yl]-1,1′,2,3′,4,4′,4a,6′-octahydro-2′H,6H-spiro[1,4-oxazino[4,3-a]quinoline-5,5′-pyrimidine]-8-carboxamide] — 0.80 log units lower, 5.38

same assay, conditions: 5 nM enzyme, 0.3 mM ATP, relaxed plasmid, fluorescence anisotropy readout; read-out: E. coli DNA gyrase supercoiling IC50

With Cc1nnc(C#Cc2cc(F)c3c(c2)C(=O)C2(CNC(=O)NC2=O)[C@H]2[C@H](C)O[C@H](C)CN32)s1 (relative stereo) [Example 37, (2R,4S,4aS)-rel-10-Fluoro-2,4-dimethyl-8-[(5-methyl-1,3,4-thiadiazol-2-yl)ethynyl]-1,2,4,4a-tetrahydro-2′H,6H-spiro[1,4-oxazino[4,3-a]quinoline-5,5′-pyrimidine]-2′,4′,6(1′H,3′H)-trione] the pIC50 was 6.03.
